Assay results: ChEMBL document CHEMBL3045716, “Isolation and characterization of n-octacosanoic acid from Viburnum foetens: a novel antibiofilm agent against Streptococcus Mutans” (2012)
Converted amounts (≈) assume the structure as drawn. The source made the active and inactive calls. No cut-off for these calls is given here.

Assays:
Streptococcus mutans [1] = experiment: Inhibition of Streptococcus mutans UA159 biofilm formation after 24 hr at 20 ug/ml by crystal violet staining analysis; format: functional; conditions: UA159, 24 h
Streptococcus mutans [2] = experiment: Inhibition of Streptococcus mutans UA159 cell surface hydrophobicity at 20 ug/ml by spectrophotometry (reference value: 88.01 +/- 1.94%); format: functional
Streptococcus mutans [3] = experiment: Inhibition of Streptococcus mutans UA159 biofilm formation at sub-MIC after 24 hr by crystal violet staining analysis; format: functional
Streptococcus mutans [4] = experiment: Antimicrobial activity against Streptococcus mutans UA159 after 24 hr by two-fold serial dilution method; format: functional; conditions: UA159, 24 h
Streptococcus mutans [5] = experiment: Inhibition of Streptococcus mutans UA159 biofilm formation assessed as conversion of carbohydrates to organic acid measured as pH at 10 ug/ml; format: functional
Streptococcus mutans [6] = experiment: Inhibition of Streptococcus mutans UA159 biofilm formation assessed as conversion of carbohydrates to organic acid measured as pH at 2.5 ug/ml; format: functional
Streptococcus mutans [7] = experiment: Inhibition of Streptococcus mutans UA159 cell surface hydrophobicity at 5 ug/ml by spectrophotometry (reference value: 88.01 +/- 1.94%); format: functional
Streptococcus mutans [8] = experiment: Inhibition of Streptococcus mutans UA159 biofilm formation assessed as conversion of carbohydrates to organic acid measured as pH at 1.25 ug/ml; format: functional
Streptococcus mutans [9] = experiment: Inhibition of sucrose-dependent adhesion of Streptococcus mutans UA159 to saliva-coated glass surface at 10 ug/ml by spectrophotometry; format: functional
Streptococcus mutans [10] = experiment: Inhibition of Streptococcus mutans UA159 biofilm formation assessed as conversion of carbohydrates to organic acid measured as pH at 40 ug/ml; format: functional
Streptococcus mutans [11] = experiment: Inhibition of Streptococcus mutans UA159 biofilm formation assessed as inability of cells to aggregrate and form clumps at MIC after 24 hr by confocal laser scanning microscopic analysis; format: functional, organism-based
Streptococcus mutans [12] = experiment: Inhibition of sucrose-dependent adhesion of Streptococcus mutans UA159 to saliva-coated glass surface at 80 ug/ml by spectrophotometry; format: functional, organism-based
[13] = biological target: T1, Glucosyltransferase-SI (Streptococcus mutans serotype c (strain ATCC 700610 / UA159)) (UniProt P13470); experiment: Inhibition of Streptococcus mutans UA159 Glucosyltransferase assessed as water-insoluble glucan production using sucrose as substrate at 2.5 ug/ml after 24 hr
T1 sequence (whole entry): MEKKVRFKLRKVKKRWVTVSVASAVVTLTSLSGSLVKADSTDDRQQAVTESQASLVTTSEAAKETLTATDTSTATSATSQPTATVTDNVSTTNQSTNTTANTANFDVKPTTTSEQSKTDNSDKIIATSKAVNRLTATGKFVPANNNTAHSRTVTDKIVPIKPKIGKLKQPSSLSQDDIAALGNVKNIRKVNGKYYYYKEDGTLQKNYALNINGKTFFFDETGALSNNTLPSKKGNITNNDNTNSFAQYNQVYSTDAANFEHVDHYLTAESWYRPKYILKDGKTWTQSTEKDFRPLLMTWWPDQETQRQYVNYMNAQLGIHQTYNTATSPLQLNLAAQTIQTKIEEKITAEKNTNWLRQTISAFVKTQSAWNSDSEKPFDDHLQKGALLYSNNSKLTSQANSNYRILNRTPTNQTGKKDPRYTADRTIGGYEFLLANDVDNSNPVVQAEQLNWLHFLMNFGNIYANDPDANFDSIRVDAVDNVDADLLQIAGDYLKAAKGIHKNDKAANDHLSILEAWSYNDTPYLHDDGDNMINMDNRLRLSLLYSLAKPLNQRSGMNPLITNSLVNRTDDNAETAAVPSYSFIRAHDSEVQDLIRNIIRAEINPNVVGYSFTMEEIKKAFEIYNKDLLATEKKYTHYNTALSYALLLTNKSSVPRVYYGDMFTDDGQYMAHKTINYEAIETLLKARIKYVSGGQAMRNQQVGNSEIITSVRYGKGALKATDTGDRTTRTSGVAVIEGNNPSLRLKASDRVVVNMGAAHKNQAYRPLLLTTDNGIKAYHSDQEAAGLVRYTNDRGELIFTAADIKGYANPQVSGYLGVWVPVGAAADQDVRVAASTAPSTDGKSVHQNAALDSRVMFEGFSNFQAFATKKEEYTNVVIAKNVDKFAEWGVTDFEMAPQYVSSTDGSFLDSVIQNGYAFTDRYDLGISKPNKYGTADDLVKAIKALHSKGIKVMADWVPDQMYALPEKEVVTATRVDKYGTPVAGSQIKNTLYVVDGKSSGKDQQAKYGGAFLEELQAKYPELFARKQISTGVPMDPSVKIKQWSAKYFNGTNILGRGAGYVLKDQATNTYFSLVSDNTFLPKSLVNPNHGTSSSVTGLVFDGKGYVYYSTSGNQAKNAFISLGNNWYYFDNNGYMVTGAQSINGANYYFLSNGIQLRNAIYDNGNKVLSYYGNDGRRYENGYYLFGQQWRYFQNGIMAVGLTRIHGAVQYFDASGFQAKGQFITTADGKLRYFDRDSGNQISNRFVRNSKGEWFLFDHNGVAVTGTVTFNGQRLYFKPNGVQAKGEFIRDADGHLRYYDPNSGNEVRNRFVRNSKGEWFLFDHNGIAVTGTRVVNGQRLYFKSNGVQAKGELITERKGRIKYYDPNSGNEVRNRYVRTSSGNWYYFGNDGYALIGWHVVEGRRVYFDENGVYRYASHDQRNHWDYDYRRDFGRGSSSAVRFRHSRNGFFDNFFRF

Streptococcus mutans [14] = experiment: Inhibition of Streptococcus mutans UA159 biofilm formation assessed as biofilm thickness at 20 ug/ml after 24 hr by confocal laser scanning microscopic analysis (reference value: 19.74 +/- 0.5 uM); format: functional
Streptococcus mutans [15] = experiment: Inhibition of Streptococcus mutans UA159 biofilm formation assessed as conversion of carbohydrates to organic acid measured as pH at 0.625 ug/ml; format: functional
Streptococcus mutans [16] = experiment: Inhibition of Streptococcus mutans UA159 biofilm formation assessed as conversion of carbohydrates to organic acid measured as pH at 80 ug/ml; format: functional
Streptococcus mutans [17] = experiment: Inhibition of Streptococcus mutans UA159 biofilm formation assessed as conversion of carbohydrates to organic acid measured as pH at 0.312 ug/ml; format: functional
Streptococcus mutans [18] = experiment: Inhibition of Streptococcus mutans UA159 biofilm formation assessed as conversion of carbohydrates to organic acid measured as pH at 5 ug/ml; format: functional
Streptococcus mutans [19] = experiment: Inhibition of sucrose-dependent adhesion of Streptococcus mutans UA159 to saliva-coated glass surface at 1.25 ug/ml by spectrophotometry; format: functional
Streptococcus mutans [20] = experiment: Inhibition of adhesion of Streptococcus mutans UA159 to saliva-coated glass surface at 0.156 to 5120 ug/ml by spectrophotometry; format: functional, organism-based
Streptococcus mutans [21] = experiment: Inhibition of Streptococcus mutans UA159 biofilm formation after 24 hr by crystal violet staining analysis; format: functional, organism-based
Streptococcus mutans [22] = experiment: Inhibition of Streptococcus mutans UA159 biofilm formation assessed as conversion of carbohydrates to organic acid measured as pH at 20 ug/ml; format: functional

MIC (Streptococcus mutans [4]): 80 µg/mL (≈ 188 µM)
inhibition [13]: 50%
Compound: CCCCCCCCCCCCCCCCCCCCCCCCCCCC(=O)O [N-OCTACOSANOIC ACID]
inhibition at 20 µg/mL (Streptococcus mutans [1]): 50%
inhibition at 20 µg/mL (Streptococcus mutans [2]): 20.1%
inhibition (INH) (Streptococcus mutans [3]): 60%
pH (Streptococcus mutans [5]): 6.48
pH (Streptococcus mutans [6]): 5.68
inhibition at 5 µg/mL (Streptococcus mutans [7]): 48.4%
pH (Streptococcus mutans [8]): 5.14
inhibition at 10 µg/mL (Streptococcus mutans [9]): 50%
pH (Streptococcus mutans [10]): 6.98
inhibition (Streptococcus mutans [11]): Active
inhibition (Streptococcus mutans [12]): Active
biofilm thickness (Streptococcus mutans [14]): 12.7 µm
pH (Streptococcus mutans [15]): 4.94
pH (Streptococcus mutans [16]): 7.55
pH (Streptococcus mutans [17]): 4.65
pH (Streptococcus mutans [18]): 6.02
inhibition at 1.25 µg/mL (Streptococcus mutans [19]): 61.3%
inhibition (Streptococcus mutans [20]): Active
inhibition (Streptococcus mutans [21]): Dose-dependent effect
pH (Streptococcus mutans [22]): 6.66
